Test results from ChEMBL document CHEMBL4619745, “Identification of 2-((2,3-dihydrobenzo[b][1,4]dioxin-6-yl)amino)-N-phenylpropanamides as a novel class of potent DprE1 inhibitors” (Bioorg Med Chem Lett, 2020).
In brackets after ≈: the same amount, converted by molar mass.

Legend:
[1] = Lipophilicity, log D of the compound at pH 7.4; type: physicochemical; conditions: buffer
[2] = test system: Mycobacterium tuberculosis; assay: Antimycobacterial activity against Mycobacterium tuberculosis H37Rv; type: functional
[3] = Inhibition of Mycobacterium tuberculosis DprE1
[4] = test system: HepG2; assay: Cytotoxicity against human HepG2 cells assessed as reduction in cell viability; type: cell-based

SMILES	logD [1]	MIC [2] [µM]	IC50 [3] [µM]	pIC50 [3]	IC50 [4] [µM]
CC(Nc1ccc2c(c1)OCCO2)C(=O)Nc1ccc(Br)nc1 (centres undefined)	4.2	32 (≈ 12.1 µg/mL)	1.59	5.8	–
O=C1C(Cc2ccc3c(c2)OCCO3)CCN1c1ccc(Br)cc1 (centres undefined)	6	> 125	31.6	4.5	–
CC(C(=O)Nc1ccc(Br)cc1)N(C)c1ccc2c(c1)OCCO2 (centres undefined)	6.7	2.5 (≈ 0.978 µg/mL)	0.063	7.2	–
CC(Nc1ccc2c(c1)NC(=O)CO2)C(=O)Nc1ccc(Br)cc1 (centres undefined)	4.2	–	> 100	< 4	–
CC(Nc1ccc2c(c1)OCCO2)C(=O)Nc1ccc(-c2cnco2)cc1 (centres undefined)	3.7	–	> 100	< 4	–
CC(Nc1cnc2c(c1)OCCO2)C(=O)Nc1ccc(Br)cc1 (centres undefined)	4	62 (≈ 23.5 µg/mL)	2	5.7	–
C[C@H](Nc1ccc2c(c1)OCCO2)C(=O)Nc1ccc(Br)cc1	5.5	13 (≈ 4.9 µg/mL)	1	6	–
CC(Nc1ccc2c(c1)OCCO2)C(=O)Nc1ccc(-c2cccnc2)cc1 (centres undefined)	4.2	–	> 100	< 4	–
CC(Nc1ccc(Br)cc1)C(=O)Nc1ccc(Br)cc1 (centres undefined)	–	–	3.98	5.4	–
CC(Nc1ccc2c(c1)OCCO2)C(=O)NC1CCCCC1 (centres undefined)	4.4	> 125	39.8	4.4	–
COc1cc(NC(C)C(=O)Nc2ccc(Br)cc2)cc(OC)c1 (centres undefined)	–	–	25.1	4.6	–
CC(Nc1ccc2c(c1)OCCO2)C(=O)Nc1ccc2cn[nH]c2c1 (centres undefined)	3	31 (≈ 10.5 µg/mL)	3.98	5.4	–
CC(Oc1ccc2c(c1)OCCO2)C(=O)Nc1ccc(Br)cc1 (centres undefined)	6.2	12 (≈ 4.54 µg/mL)	0.2	6.7	–
CNC(=O)c1ccc(NC(=O)C(C)Nc2ccc3c(c2)OCCO3)cc1 (centres undefined)	2.4	–	> 100	< 4	–
CC(Nc1ccc2c(c1)CCCC2)C(=O)Nc1ccc(Br)cc1 (centres undefined)	7.7	16 (≈ 5.97 µg/mL)	0.631	6.2	–
O=C1C(Cc2ccc3c(c2)OCCO3)CCCN1c1ccc(Br)cc1 (centres undefined)	5.8	110 (≈ 44.3 µg/mL)	63.1	4.2	–
CNC(=O)C(C)Nc1ccc2c(c1)OCCO2 (centres undefined)	–	> 125	31.6	4.5	–
CC(Nc1ccc2c(c1)OCCO2)C(=O)Nc1ccc(C#N)cc1 (centres undefined)	4.2	31 (≈ 10 µg/mL)	2	5.7	–
O=C(CNc1ccc2c(c1)OCCO2)Nc1ccc(Br)cc1	5.1	16 (≈ 5.81 µg/mL)	0.2	6.7	–
CC(Nc1ccc2c(c1)OCCO2)C(=O)Nc1nc2ccccc2[nH]1 (centres undefined)	3.7	62 (≈ 21 µg/mL)	3.98	5.4	–
CC(Cc1ccc2c(c1)OCCO2)C(=O)Nc1ccc(Br)cc1 (centres undefined)	–	110 (≈ 41.4 µg/mL)	2	5.7	–

SMILES	logD [1]	MIC [2] [µM]	IC50 [3] [µM]	pIC50 [3]	IC50 [4] [µM]
CC(Nc1ccc2c(c1)OCO2)C(=O)Nc1ccc(Br)cc1 (centres undefined)	–	–	1	6	–
CC(C)C(Nc1ccc2c(c1)OCCO2)C(=O)Nc1ccc(Br)cc1 (centres undefined)	6.6	> 125	39.8	4.4	–
CC(Nc1ccc2c(c1)NCCO2)C(=O)Nc1ccc(Br)cc1 (centres undefined)	4.8	> 125	2.51	5.6	–
CC(Nc1ccc2c(c1)OCCO2)C(=O)Nc1ccc(C(F)(F)F)cc1 (centres undefined)	–	–	0.126	6.9	–
COc1cccc(NC(C)C(=O)Nc2ccc(Br)cc2)c1 (centres undefined)	–	–	1.59	5.8	–
Cc1ccc(NC(=O)C(C)Nc2ccc3c(c2)OCCO3)cc1 (centres undefined)	4.8	125 (≈ 39 µg/mL)	15.8	4.8	–
CC(Nc1ccc2c(c1)OCCO2)C(=O)Nc1ccc(Br)cc1 (racemic)	5.5	7.8 (≈ 2.94 µg/mL)	0.063	7.2	> 100
CCC(Nc1ccc2c(c1)OCCO2)C(=O)Nc1ccc(Br)cc1 (centres undefined)	6	62 (≈ 24.3 µg/mL)	3.98	5.4	–
CC(Nc1ccc2c(c1)OCCO2)C(=O)Nc1ccc(Br)cn1 (centres undefined)	5.4	80 (≈ 30.3 µg/mL)	6.31	5.2	–
COc1ccc(NC(C)C(=O)Nc2ccc(Br)cc2)cc1OC (centres undefined)	5.2	40 (≈ 15.2 µg/mL)	2	5.7	–
NNC(=O)c1ccncc1 [ISONIAZID]	–	1.8 (≈ 0.247 µg/mL)	–	–	–
CC(Nc1ccc2c(c1)OCC(=O)N2)C(=O)Nc1ccc(Br)cc1 (centres undefined)	3.9	–	> 100	< 4	–
CC(Nc1ccc(Br)cc1)C(=O)Nc1ccc2c(c1)OCCO2 (centres undefined)	5.3	125 (≈ 47.2 µg/mL)	63.1	4.2	–
CC(Nc1ccc2c(c1)OCCO2)C(=O)N(C)C (centres undefined)	2.2	> 125	39.8	4.4	–
CC(C)(Nc1ccc2c(c1)OCCO2)C(=O)Nc1ccc(Br)cc1	6.3	4 (≈ 1.57 µg/mL)	0.126	6.9	–
CC(Nc1ccc2c(c1)NCCC2)C(=O)Nc1ccc(Br)cc1 (centres undefined)	6	125 (≈ 46.8 µg/mL)	1.26	5.9	–
CC(Nc1ccc2c(c1)OCCO2)C(=O)Nc1ccc(Cl)cc1 (centres undefined)	5.2	8 (≈ 2.66 µg/mL)	0.398	6.4	–
CC(Nc1ccc2c(c1)OCCCO2)C(=O)Nc1ccc(Br)cc1 (centres undefined)	5.7	4 (≈ 1.57 µg/mL)	0.158	6.8	–
C[C@@H](Nc1ccc2c(c1)OCCO2)C(=O)Nc1ccc(Br)cc1	5.5	6.5 (≈ 2.45 µg/mL)	0.251	6.6	–
CC(Nc1ccc2c(c1)OCCO2)C(=O)Nc1ccc2cc[nH]c2c1 (centres undefined)	4	32 (≈ 10.8 µg/mL)	0.794	6.1	–
CC(Nc1ccc2c(c1)OCCO2)C(=O)Nc1ccccc1 (centres undefined)	4.3	> 125	63.1	4.2	–
